Measurements as given in PMC5218480 (PLoS ONE, 2017).

Test system: MV-4-11 cells
Assay: Gene expression microarray analysis (Affymetrix PrimeView) and GSEA
Format: cell-based, human
Design: RFU PODN (11730768_x_at) / Fold change /veh PODN (11730768_x_at) / RFU LINC00158 (11744669_a_at) / Fold change /veh LINC00158 (11744669_a_at) / RFU DUSP10 (11751237_a_at) / Fold change /veh DUSP10 (11751237_a_at) / RFU ID3 (11757404_x_at) / Fold change /veh ID3 (11757404_x_at) / RFU PLEKHG5 (11737974_s_at) / Fold change /veh PLEKHG5 (11737974_s_at) / RFU LRRC4B (11730491_at) / Fold change /veh LRRC4B (11730491_at) / RFU GIMAP4 (11747438_a_at) / Fold change /veh GIMAP4 (11747438_a_at) / RFU KRT8 (11758183_x_at) / Fold change /veh KRT8 (11758183_x_at) / RFU CNN1 (11734310_a_at) / Fold change /veh CNN1 (11734310_a_at) / RFU VPS37D (11726825_at) / Fold change /veh VPS37D (11726825_at) / RFU C10orf10 (11716522_x_at) / Fold change /veh C10orf10 (11716522_x_at) / RFU KIR2DL2 /// KIR2DL4 /// KIR2DL5A /// KIR2DL5B /// KIR2DS1 /// KIR2DS2 /// KIR2DS3 /// KIR2DS4 /// KIR3DL3 /// KIR3DL3 /// KIR3DS1 (11738374_at) / Fold change /veh KIR2DL2 /// KIR2DL4 /// KIR2DL5A /// KIR2DL5B /// KIR2DS1 /// KIR2DS2 /// KIR2DS3 /// KIR2DS4 /// KIR3DL3 /// KIR3DL3 /// KIR3DS1 (11738374_at) / RFU C1QL1 (11718748_at) / Fold change /veh C1QL1 (11718748_at) / RFU TMPRSS4 (11747572_a_at) / Fold change /veh TMPRSS4 (11747572_a_at) / RFU HAMP (11756126_x_at) / Fold change /veh HAMP (11756126_x_at) / RFU RNFT2 (11725882_a_at) / Fold change /veh RNFT2 (11725882_a_at) / RFU NR4A2 (11747474_a_at) / Fold change /veh NR4A2 (11747474_a_at) / RFU ABCC12 (11746883_a_at) / Fold change /veh ABCC12 (11746883_a_at) / RFU TMEM136 (11760407_x_at) / Fold change /veh TMEM136 (11760407_x_at) / RFU CLDN22 /// WWC2 (11732394_at) / Fold change /veh CLDN22 /// WWC2 (11732394_at) / RFU HLA-DPB1 (11760878_x_at) / Fold change /veh HLA-DPB1 (11760878_x_at) / RFU SPINT1 (11716480_a_at) / Fold change /veh SPINT1 (11716480_a_at) / RFU GAP43 (11754022_s_at) / Fold change /veh GAP43 (11754022_s_at) / RFU A4GNT (11735810_at) / Fold change /veh A4GNT (11735810_at) / RFU PRB3 (11715151_x_at) / Fold change /veh PRB3 (11715151_x_at) / RFU TUBB4B (11761932_at) / Fold change /veh TUBB4B (11761932_at) / RFU CAPN14 (11732068_a_at) / Fold change /veh CAPN14 (11732068_a_at) / RFU TMCC2 (11721928_a_at) / Fold change /veh TMCC2 (11721928_a_at) / RFU IRGQ (11745062_a_at) / Fold change /veh IRGQ (11745062_a_at) / RFU FAM174B (11720279_a_at) / Fold change /veh FAM174B (11720279_a_at) / RFU TMPRSS4 (11748680_a_at) / Fold change /veh TMPRSS4 (11748680_a_at) / RFU FAM212B (11763350_a_at) / Fold change /veh FAM212B (11763350_a_at) / RFU PLEKHG5 (11743358_a_at) / Fold change /veh PLEKHG5 (11743358_a_at) / RFU ZSCAN30 (11745921_a_at) / Fold change /veh ZSCAN30 (11745921_a_at) / RFU CMKLR1 (11741424_a_at) / Fold change /veh CMKLR1 (11741424_a_at) / RFU LOC101060620 /// MAPK8IP1 (11723275_at) / Fold change /veh LOC101060620 /// MAPK8IP1 (11723275_at) / RFU SPTSSB (11747773_x_at) / Fold change /veh SPTSSB (11747773_x_at) / RFU PRSS12 (11739890_at) / Fold change /veh PRSS12 (11739890_at) / RFU BIN1 (11741810_x_at) / Fold change /veh BIN1 (11741810_x_at) / RFU WNT11 (11732464_a_at) / Fold change /veh WNT11 (11732464_a_at) / RFU C10orf10 (11716521_a_at) / Fold change /veh C10orf10 (11716521_a_at) / RFU C5orf56 (11738089_at) / Fold change /veh C5orf56 (11738089_at) / RFU CYB561 (11721691_x_at) / Fold change /veh CYB561 (11721691_x_at) / RFU ANKRD19P (11752326_a_at) / Fold change /veh ANKRD19P (11752326_a_at) / RFU OR2T12 /// OR2T33 /// OR2T8 (11738714_s_at) / Fold change /veh OR2T12 /// OR2T33 /// OR2T8 (11738714_s_at) / RFU VCAN (11748164_a_at) / Fold change /veh VCAN (11748164_a_at) / RFU JSRP1 (11732532_at) / Fold change /veh JSRP1 (11732532_at) / RFU KRTAP10-11 (11738290_x_at) / Fold change /veh KRTAP10-11 (11738290_x_at) / RFU MYO3A (11730013_a_at) / Fold change /veh MYO3A (11730013_a_at) / RFU EBF3 (11725865_a_at) / Fold change /veh EBF3 (11725865_a_at) / RFU CAMK2N1 (11719241_x_at) / Fold change /veh CAMK2N1 (11719241_x_at) / RFU C5orf56 (11738088_a_at) / Fold change /veh C5orf56 (11738088_a_at) / RFU OLFML3 (11715873_a_at) / Fold change /veh OLFML3 (11715873_a_at) / RFU LOC100653217 /// NTM (11731650_a_at) / Fold change /veh LOC100653217 /// NTM (11731650_a_at) / RFU MAPK11 (11762145_a_at) / Fold change /veh MAPK11 (11762145_a_at) / RFU FIZ1 (11724087_x_at) / Fold change /veh FIZ1 (11724087_x_at) / RFU OASL (11726364_x_at) / Fold change /veh OASL (11726364_x_at) / RFU SOX15 (11748057_x_at) / Fold change /veh SOX15 (11748057_x_at) / RFU CD79A (11719716_a_at) / Fold change /veh CD79A (11719716_a_at) / RFU HIST1H1D (11736915_at) / Fold change /veh HIST1H1D (11736915_at) / RFU CASKIN2 (11723855_a_at) / Fold change /veh CASKIN2 (11723855_a_at) / RFU LOC730098 (11760151_x_at) / Fold change /veh LOC730098 (11760151_x_at) / RFU OR4N2 (11742367_at) / Fold change /veh OR4N2 (11742367_at) / RFU PRRT2 (11749266_a_at) / Fold change /veh PRRT2 (11749266_a_at) / RFU SNX32 (11753110_a_at) / Fold change /veh SNX32 (11753110_a_at) / RFU CDHR5 (11726645_a_at) / Fold change /veh CDHR5 (11726645_a_at) / RFU RCAN1 (11760418_a_at) / Fold change /veh RCAN1 (11760418_a_at) / RFU FAM167A (11723789_a_at) / Fold change /veh FAM167A (11723789_a_at) / RFU FAM26E (11764081_at) / Fold change /veh FAM26E (11764081_at) / RFU ISYNA1 (11749810_s_at) / Fold change /veh ISYNA1 (11749810_s_at) / RFU ACY1 (11761880_at) / Fold change /veh ACY1 (11761880_at) / RFU 11764098_at / Fold change /veh 11764098_at / RFU SAMD14 (11745864_x_at) / Fold change /veh SAMD14 (11745864_x_at) / RFU NPB (11741838_a_at) / Fold change /veh NPB (11741838_a_at) / RFU TMPRSS6 (11731388_a_at) / Fold change /veh TMPRSS6 (11731388_a_at) / RFU KRTAP10-2 (11738614_at) / Fold change /veh KRTAP10-2 (11738614_at) / RFU ARHGAP8 /// PRR5-ARHGAP8 (11727945_x_at) / Fold change /veh ARHGAP8 /// PRR5-ARHGAP8 (11727945_x_at) / RFU KRTAP5-7 /// NADSYN1 (11734609_at) / Fold change /veh KRTAP5-7 /// NADSYN1 (11734609_at) / RFU RASL12 (11751679_a_at) / Fold change /veh RASL12 (11751679_a_at) / RFU CDKN2B (11736163_a_at) / Fold change /veh CDKN2B (11736163_a_at) / RFU PRF1 (11729649_at) / Fold change /veh PRF1 (11729649_at) / RFU, ZNF638 /// ZNF638-IT1 / Fold change vs veh, ZNF638 /// ZNF638-IT1 / RFU, PANK3 / Fold change vs veh, PANK3 / RFU, SH3YL1 / Fold change vs veh, SH3YL1 / RFU, ZEB2 / Fold change vs veh, ZEB2 / RFU, NRIP1 / Fold change vs veh, NRIP1 / RFU, PTTG1IP / Fold change vs veh, PTTG1IP / RFU, CAPN2 / Fold change vs veh, CAPN2 / RFU, MED14 / Fold change vs veh, MED14 / RFU, SNORA58 / Fold change vs veh, SNORA58 / RFU, C1orf63 / Fold change vs veh, C1orf63 / RFU, LRRFIP1 / Fold change vs veh, LRRFIP1 / RFU, NDUFAF7 / Fold change vs veh, NDUFAF7 / RFU, SLC12A2 / Fold change vs veh, SLC12A2 / RFU, IBTK / Fold change vs veh, IBTK / RFU, ESF1 / Fold change vs veh, ESF1 / Fold change vs veh, TMEM50B / RFU, TAOK1 / Fold change vs veh, TAOK1 / RFU, ACBD3 / Fold change vs veh, ACBD3 / RFU, TMA16 / Fold change vs veh, TMA16 / RFU, RWDD3 / Fold change vs veh, RWDD3 / RFU, BCAT1 / Fold change vs veh, BCAT1 / RFU, EDEM3 / Fold change vs veh, EDEM3 / RFU, TMEM33 / Fold change vs veh, TMEM33 / RFU, WDR75 / Fold change vs veh, WDR75 / RFU, AHCTF1 / Fold change vs veh, AHCTF1 / RFU, TFRC / Fold change vs veh, TFRC / RFU, ZDHHC17 / Fold change vs veh, ZDHHC17 / RFU, NOM1 / Fold change vs veh, NOM1 / RFU, ARL8B / Fold change vs veh, ARL8B / RFU, ZBTB11 / Fold change vs veh, ZBTB11 / RFU, TAMM41 / Fold change vs veh, TAMM41 / RFU, KIAA1704 /// LOC100996395 / Fold change vs veh, KIAA1704 /// LOC100996395 / RFU, ING1 / Fold change vs veh, ING1 / RFU, TRMT61B / Fold change vs veh, TRMT61B / RFU, FUBP3 / Fold change vs veh, FUBP3 / RFU, TP53 / Fold change vs veh, TP53 / RFU, TNKS2 / Fold change vs veh, TNKS2 / RFU, ZFP14 / Fold change vs veh, ZFP14 / RFU, ACTR2 / Fold change vs veh, ACTR2 / RFU, PPP3R1 / Fold change vs veh, PPP3R1 / RFU, PIK3R1 / Fold change vs veh, PIK3R1 / RFU, HNRNPA1 / Fold change vs veh, HNRNPA1 / RFU, RNF170 / Fold change vs veh, RNF170 / RFU, ZNF28 / Fold change vs veh, ZNF28 / RFU, RNGTT / Fold change vs veh, RNGTT / RFU, OGT / Fold change vs veh, OGT / RFU, BRD1 / Fold change vs veh, BRD1 / RFU, MARS / Fold change vs veh, MARS / RFU, ZNF655 / Fold change vs veh, ZNF655 / RFU, FAHD1 / Fold change vs veh, FAHD1 / RFU, BDP1 / Fold change vs veh, BDP1 / RFU, LRRCC1 / Fold change vs veh, LRRCC1 / RFU, ARID1A / Fold change vs veh, ARID1A / RFU, ZNF146 / Fold change vs veh, ZNF146 / RFU, ZNF330 / Fold change vs veh, ZNF330 / RFU, GPN3 / Fold change vs veh, GPN3 / RFU, C9orf123 / Fold change vs veh, C9orf123 / RFU, N4BP2L2 / Fold change vs veh, N4BP2L2 / RFU, ARFIP1 / Fold change vs veh, ARFIP1 / RFU, FAM179B / Fold change vs veh, FAM179B / RFU, BCL10 / Fold change vs veh, BCL10 / RFU, UHRF1BP1L / Fold change vs veh, UHRF1BP1L / RFU, BET1 / Fold change vs veh, BET1 / RFU, CNOT2 / Fold change vs veh, CNOT2 / RFU, ZNF268 / Fold change vs veh, ZNF268 / Fold change vs veh, ZNF507 / RFU, DGCR2 / Fold change vs veh, DGCR2 / RFU, WDSUB1 / Fold change vs veh, WDSUB1 / Fold change vs veh, HSP90B1 /// MIR3652 / RFU, ADSS / Fold change vs veh, ADSS / RFU, GK / Fold change vs veh, GK / RFU, ZNF148 / Fold change vs veh, ZNF148 / RFU, TAF9 / Fold change vs veh, TAF9 / RFU, SLC1A5 / Fold change vs veh, SLC1A5 / RFU, SLMO2 / Fold change vs veh, SLMO2 / RFU, ABCC4 / Fold change vs veh, ABCC4 / RFU, LOC101060439 /// RAP1B / Fold change vs veh, LOC101060439 /// RAP1B / RFU, RFX7 / Fold change vs veh, RFX7 / RFU, GTPBP10 / Fold change vs veh, GTPBP10 / RFU, CNEP1R1 / Fold change vs veh, CNEP1R1 / RFU, BIVM-ERCC5 /// ERCC5 / Fold change vs veh, BIVM-ERCC5 /// ERCC5 / RFU, ILF3 / Fold change vs veh, ILF3 / RFU 11762660_at / Fold change /veh 11762660_at / RFU VCAN (11757783_s_at) / Fold change /veh VCAN (11757783_s_at) / RFU DDX43 (11728927_at) / Fold change /veh DDX43 (11728927_at) / RFU KRT8 (11758188_x_at) / Fold change /veh KRT8 (11758188_x_at) / RFU NKD1 (11759106_at) / Fold change /veh NKD1 (11759106_at) / RFU SRD5A1 (11742802_a_at) / Fold change /veh SRD5A1 (11742802_a_at) / RFU TPSAB1 /// TPSB2 (11721975_s_at) / Fold change /veh TPSAB1 /// TPSB2 (11721975_s_at) / RFU GSTM3 (11746129_a_at) / Fold change /veh GSTM3 (11746129_a_at) / RFU IL23R (11737362_x_at) / Fold change /veh IL23R (11737362_x_at) / RFU TMEM51 (11727254_a_at) / Fold change /veh TMEM51 (11727254_a_at) / RFU PIWIL2 (11732686_x_at) / Fold change /veh PIWIL2 (11732686_x_at) / RFU ORM1 (11744905_x_at) / Fold change /veh ORM1 (11744905_x_at) / RFU CCDC152 (11743942_at) / Fold change /veh CCDC152 (11743942_at) / RFU ECM1 (11717891_a_at) / Fold change /veh ECM1 (11717891_a_at) / RFU IL23R (11748794_a_at) / Fold change /veh IL23R (11748794_a_at) / RFU TNFAIP8L3 (11732012_x_at) / Fold change /veh TNFAIP8L3 (11732012_x_at) / RFU MBOAT4 (11741988_at) / Fold change /veh MBOAT4 (11741988_at) / RFU 11764193_at / Fold change /veh 11764193_at / RFU TMEM53 (11763286_at) / Fold change /veh TMEM53 (11763286_at) / RFU MAGEB2 (11727129_at) / Fold change /veh MAGEB2 (11727129_at) / RFU TMEM200A (11744735_a_at) / Fold change /veh TMEM200A (11744735_a_at) / RFU CCDC152 (11751479_a_at) / Fold change /veh CCDC152 (11751479_a_at) / RFU FAM211A (11726209_a_at) / Fold change /veh FAM211A (11726209_a_at) / RFU RGS16 (11746705_a_at) / Fold change /veh RGS16 (11746705_a_at) / RFU VCAN (11755009_s_at) / Fold change /veh VCAN (11755009_s_at) / RFU RHOB (11743442_s_at) / Fold change /veh RHOB (11743442_s_at) / RFU RGS16 (11720943_a_at) / Fold change /veh RGS16 (11720943_a_at) / RFU RGS16 (11720944_at) / Fold change /veh RGS16 (11720944_at) / RFU, VPS4B / Fold change vs veh, VPS4B / RFU, CREB1 / Fold change vs veh, CREB1 / RFU, DNAJC13 / Fold change vs veh, DNAJC13 / RFU, GNAQ / Fold change vs veh, GNAQ / RFU, CDK5R1 / Fold change vs veh, CDK5R1 / RFU, ZRANB3 / Fold change vs veh, ZRANB3 / RFU, CUL4A / Fold change vs veh, CUL4A / RFU, CCNY / Fold change vs veh, CCNY / RFU, UFL1 / Fold change vs veh, UFL1 / RFU, COG3 / Fold change vs veh, COG3 / RFU, DIAPH2 / Fold change vs veh, DIAPH2 / RFU, SKA2 / Fold change vs veh, SKA2 / RFU, AFF3 / Fold change vs veh, AFF3 / RFU, LMF1 / Fold change vs veh, LMF1 / RFU, IPO11 / Fold change vs veh, IPO11 / RFU, DFFB / Fold change vs veh, DFFB / RFU, FOXP1 / Fold change vs veh, FOXP1 / RFU, CARD8 / Fold change vs veh, CARD8 / RFU, STRN3 / Fold change vs veh, STRN3 / RFU, ADK / Fold change vs veh, ADK / RFU, RASSF2 / Fold change vs veh, RASSF2 / RFU, WIPF1 / Fold change vs veh, WIPF1 / RFU, LARP1B / Fold change vs veh, LARP1B / RFU, RASA1 / Fold change vs veh, RASA1 / RFU, RB1 / Fold change vs veh, RB1 / RFU, PPFIA1 / Fold change vs veh, PPFIA1 / RFU, MAT2A / Fold change vs veh, MAT2A / RFU, CCT5 / Fold change vs veh, CCT5 / RFU, WDR92 / Fold change vs veh, WDR92 / RFU, CUX1 / Fold change vs veh, CUX1 / RFU, TTC7A / Fold change vs veh, TTC7A / RFU, TMEM135 / Fold change vs veh, TMEM135 / RFU, DEPTOR / Fold change vs veh, DEPTOR / RFU, CPM / Fold change vs veh, CPM / RFU, DNAJB6 / Fold change vs veh, DNAJB6 / RFU, CACNA2D3 / Fold change vs veh, CACNA2D3 / RFU, DTX4 / Fold change vs veh, DTX4 / RFU, TFCP2 / Fold change vs veh, TFCP2 / RFU, GMCL1 /// GMCL1P1 / Fold change vs veh, GMCL1 /// GMCL1P1 / RFU, AEBP2 / Fold change vs veh, AEBP2 / RFU, SNHG1 /// SNORD22 /// SNORD25 /// SNORD26 /// SNORD27 /// SNORD28 /// SNORD29 /// SNORD31 / Fold change vs veh, SNHG1 /// SNORD22 /// SNORD25 /// SNORD26 /// SNORD27 /// SNORD28 /// SNORD29 /// SNORD31 / Fold change (Aza/veh), C12orf56 (ProbeSet 11735607_a_at) / Fold change (ACY-1035/veh), C12orf56 (ProbeSet 11735607_a_at) / Fold change (Aza/veh), FGFR1OP (ProbeSet 11751329_s_at) / Fold change (ACY-1035/veh), FGFR1OP (ProbeSet 11751329_s_at) / Fold change (Aza/veh), VPS36 (ProbeSet 11739960_a_at) / Fold change (ACY-1035/veh), VPS36 (ProbeSet 11739960_a_at) / RFU SYPL1 (11715823_x_at) / Fold change /veh SYPL1 (11715823_x_at) / RFU IGFBP7 (11715501_s_at) / Fold change /veh IGFBP7 (11715501_s_at) / RFU REEP3 (11722064_at) / Fold change /veh REEP3 (11722064_at) / RFU IGLL1 (11728026_x_at) / Fold change /veh IGLL1 (11728026_x_at): dose or concentration left out as unconfirmed
Conditions: MV-4-11 cells, 48 hours

`Nc1ccc(-c2cccs2)cc1NC(=O)c1ccc2c(c1)cc(C1CC1)n2CCN1CCOCC1` [ACY-1035] was tested, and the “Fold change /veh TMPRSS4 (11748680_a_at)” value was 1.05.
